# Legend:
# [1] = biological target: SIK3 (Homo sapiens (Human), UniProt Q9Y2K2); assay: Percent activity against SIK3 at 1 μM; format: biochemical
# [2] = biological target: AAK1 (Homo sapiens (Human), UniProt Q2M2I8); assay: KINOMEscan; format: binding; settings: 1 uM
# [3] = biological target: ABL1 (T315I)-nonphosphorylated (Homo sapiens (Human), UniProt P00519, T315I); assay: KINOMEscan; format: binding; settings: 1 uM
# [4] = biological target: ACVR2B (Homo sapiens (Human), UniProt Q13705); assay: KINOMEscan; format: binding; settings: 1 uM
# [5] = biological target: CAMK2A (Homo sapiens (Human), UniProt Q9UQM7); assay: KINOMEscan; format: binding; settings: 1 uM
# [6] = biological target: CAMKK2 (Homo sapiens (Human), UniProt Q96RR4); assay: KINOMEscan; format: binding; settings: 1 uM
# [7] = biological target: CSNK1E (Homo sapiens (Human), UniProt P49674); assay: KINOMEscan; format: binding; settings: 1 uM
# CSNK1E, sequence (P49674 whole entry): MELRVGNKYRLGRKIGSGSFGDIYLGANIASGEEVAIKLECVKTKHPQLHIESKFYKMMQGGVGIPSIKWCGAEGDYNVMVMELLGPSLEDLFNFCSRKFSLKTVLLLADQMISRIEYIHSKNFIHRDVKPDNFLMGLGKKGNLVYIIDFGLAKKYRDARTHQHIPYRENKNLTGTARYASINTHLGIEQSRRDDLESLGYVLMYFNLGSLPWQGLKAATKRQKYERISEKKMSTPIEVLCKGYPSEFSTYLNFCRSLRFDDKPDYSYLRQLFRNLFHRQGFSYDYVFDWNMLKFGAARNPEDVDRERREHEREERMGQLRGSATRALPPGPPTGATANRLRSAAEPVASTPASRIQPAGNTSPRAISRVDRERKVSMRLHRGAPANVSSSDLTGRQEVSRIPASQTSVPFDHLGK
# [8] = biological target: DRAK1 (Homo sapiens (Human), UniProt Q9UEE5); assay: KINOMEscan; format: binding; settings: 1 uM
# [9] = biological target: DYRK2 (Homo sapiens (Human), UniProt Q92630); assay: KINOMEscan; format: binding; settings: 1 uM
# [10] = biological target: EPHB3 (Homo sapiens (Human), UniProt P54753); assay: KINOMEscan; format: binding; settings: 1 uM
# [11] = biological target: ERBB2 (Homo sapiens (Human), UniProt P04626); assay: KINOMEscan; format: binding; settings: 1 uM
# [12] = biological target: ERK2 (Homo sapiens (Human), UniProt P28482); assay: KINOMEscan; format: binding; settings: 1 uM
# [13] = biological target: FGFR3 (Homo sapiens (Human), UniProt P22607); assay: KINOMEscan; format: binding; settings: 1 uM
# [14] = biological target: FLT3 (R834Q) (Homo sapiens (Human), UniProt P36888, R834Q); assay: KINOMEscan; format: binding; settings: 1 uM
# [15] = biological target: FLT4 (Homo sapiens (Human), UniProt P35916); assay: KINOMEscan; format: binding; settings: 1 uM
# [16] = biological target: GAK (Homo sapiens (Human), UniProt O14976); assay: KINOMEscan; format: binding; settings: 1 uM
# [17] = biological target: MAP4K4 (Homo sapiens (Human), UniProt O95819); assay: KINOMEscan; format: binding; settings: 1 uM
# [18] = biological target: MAPKAPK2 (Homo sapiens (Human), UniProt P49137); assay: KINOMEscan; format: binding; settings: 1 uM
# [19] = biological target: MAPKAPK5 (Homo sapiens (Human), UniProt Q8IW41); assay: KINOMEscan; format: binding; settings: 1 uM
# [20] = biological target: MEK2 (Homo sapiens (Human), UniProt P36507); assay: KINOMEscan; format: binding; settings: 1 uM
# MEK2, sequence (P36507 whole entry): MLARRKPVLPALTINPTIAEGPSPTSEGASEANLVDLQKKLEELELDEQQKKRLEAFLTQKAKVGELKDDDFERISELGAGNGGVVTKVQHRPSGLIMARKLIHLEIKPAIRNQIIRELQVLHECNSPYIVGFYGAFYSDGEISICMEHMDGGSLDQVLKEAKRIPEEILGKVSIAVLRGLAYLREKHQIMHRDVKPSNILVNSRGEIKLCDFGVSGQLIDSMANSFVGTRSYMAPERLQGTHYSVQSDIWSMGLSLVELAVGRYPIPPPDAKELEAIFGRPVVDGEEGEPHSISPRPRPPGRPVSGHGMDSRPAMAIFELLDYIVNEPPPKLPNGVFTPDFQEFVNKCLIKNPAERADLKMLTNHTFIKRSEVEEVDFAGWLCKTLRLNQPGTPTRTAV
# [21] = biological target: MEK3 (Homo sapiens (Human), UniProt P46734); assay: KINOMEscan; format: binding; settings: 1 uM
# [22] = biological target: MEK5 (Homo sapiens (Human), UniProt Q13163); assay: KINOMEscan; format: binding; settings: 1 uM
# [23] = biological target: MKNK1 (Homo sapiens (Human), UniProt Q9BUB5); assay: KINOMEscan; format: binding; settings: 1 uM
# [24] = biological target: MLCK (Homo sapiens (Human), UniProt Q32MK0); assay: KINOMEscan; format: binding; settings: 1 uM
# [25] = biological target: MST1R (Homo sapiens (Human), UniProt Q04912); assay: KINOMEscan; format: binding; settings: 1 uM
# [26] = biological target: NEK10 (Homo sapiens (Human), UniProt Q6ZWH5); assay: KINOMEscan; format: binding; settings: 1 uM
# [27] = biological target: NEK3 (Homo sapiens (Human), UniProt P51956); assay: KINOMEscan; format: binding; settings: 1 uM
# [28] = biological target: NEK5 (Homo sapiens (Human), UniProt Q6P3R8); assay: KINOMEscan; format: binding; settings: 1 uM
# [29] = biological target: p38-gamma (Homo sapiens (Human), UniProt P53778); assay: KINOMEscan; format: binding; settings: 1 uM
# [30] = biological target: PIK3C2B (Homo sapiens (Human), UniProt O00750); assay: KINOMEscan; format: binding; settings: 1 uM
# [31] = biological target: PKAC-beta (Homo sapiens (Human), UniProt P22694); assay: KINOMEscan; format: binding; settings: 1 uM
# [32] = biological target: RAF1 (Homo sapiens (Human), UniProt P04049); assay: KINOMEscan; format: binding; settings: 1 uM
# [33] = biological target: RSK4 (Kin.Dom.1-N-terminal) (Homo sapiens (Human), UniProt Q9UK32); assay: KINOMEscan; format: binding; settings: 1 uM
# RSK4 (Kin.Dom.1-N-terminal), sequence (Q9UK32 73-330): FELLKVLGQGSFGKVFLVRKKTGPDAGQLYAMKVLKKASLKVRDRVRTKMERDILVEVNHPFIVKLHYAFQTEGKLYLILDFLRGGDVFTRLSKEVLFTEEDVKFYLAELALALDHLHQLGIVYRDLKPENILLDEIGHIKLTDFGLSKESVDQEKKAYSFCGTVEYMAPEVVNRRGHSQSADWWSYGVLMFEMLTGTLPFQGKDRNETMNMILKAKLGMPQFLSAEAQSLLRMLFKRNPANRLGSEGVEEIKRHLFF
# [34] = biological target: SIK2 (Homo sapiens (Human), UniProt Q9H0K1); assay: KINOMEscan; format: binding; settings: 1 uM
# [35] = biological target: STK36 (Homo sapiens (Human), UniProt Q9NRP7); assay: KINOMEscan; format: binding; settings: 1 uM
# [36] = biological target: TBK1 (Homo sapiens (Human), UniProt Q9UHD2); assay: KINOMEscan; format: binding; settings: 1 uM
# [37] = biological target: TIE1 (Homo sapiens (Human), UniProt P35590); assay: KINOMEscan; format: binding; settings: 1 uM
# TIE1, sequence (P35590 22-1138): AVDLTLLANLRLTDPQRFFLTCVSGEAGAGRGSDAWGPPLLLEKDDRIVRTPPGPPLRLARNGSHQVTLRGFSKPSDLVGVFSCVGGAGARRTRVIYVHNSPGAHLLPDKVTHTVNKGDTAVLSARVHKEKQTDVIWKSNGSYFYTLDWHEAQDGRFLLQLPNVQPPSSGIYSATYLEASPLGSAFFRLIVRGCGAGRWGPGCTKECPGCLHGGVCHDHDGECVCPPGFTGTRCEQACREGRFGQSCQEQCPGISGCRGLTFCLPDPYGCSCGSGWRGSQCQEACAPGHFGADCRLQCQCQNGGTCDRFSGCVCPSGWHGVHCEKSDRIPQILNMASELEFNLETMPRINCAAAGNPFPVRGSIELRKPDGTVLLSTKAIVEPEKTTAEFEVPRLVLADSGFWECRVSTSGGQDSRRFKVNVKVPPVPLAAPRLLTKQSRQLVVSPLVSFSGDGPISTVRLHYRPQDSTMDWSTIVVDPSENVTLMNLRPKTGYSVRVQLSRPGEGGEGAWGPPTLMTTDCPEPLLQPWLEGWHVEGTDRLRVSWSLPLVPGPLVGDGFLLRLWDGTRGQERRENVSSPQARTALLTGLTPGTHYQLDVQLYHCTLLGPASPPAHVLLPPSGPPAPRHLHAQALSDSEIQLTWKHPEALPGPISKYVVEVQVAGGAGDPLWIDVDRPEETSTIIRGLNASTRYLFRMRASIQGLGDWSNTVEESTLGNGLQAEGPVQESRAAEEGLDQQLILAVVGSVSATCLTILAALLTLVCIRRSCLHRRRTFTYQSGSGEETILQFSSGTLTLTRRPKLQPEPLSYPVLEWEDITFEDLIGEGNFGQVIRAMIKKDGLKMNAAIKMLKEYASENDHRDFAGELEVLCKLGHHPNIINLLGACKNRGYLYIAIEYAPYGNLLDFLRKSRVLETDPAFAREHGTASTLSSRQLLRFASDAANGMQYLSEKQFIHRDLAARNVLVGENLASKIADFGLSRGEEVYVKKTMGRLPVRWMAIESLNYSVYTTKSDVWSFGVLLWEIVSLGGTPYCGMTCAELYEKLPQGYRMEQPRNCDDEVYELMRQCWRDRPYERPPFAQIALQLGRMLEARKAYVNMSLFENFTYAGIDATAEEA
# [38] = biological target: TNIK (Homo sapiens (Human), UniProt Q9UKE5); assay: KINOMEscan; format: binding; settings: 1 uM
# [39] = biological target: TNK2 (Homo sapiens (Human), UniProt Q07912); assay: KINOMEscan; format: binding; settings: 1 uM
# [40] = biological target: YSK1 (Homo sapiens (Human), UniProt O00506); assay: KINOMEscan; format: binding; settings: 1 uM
# [41] = biological target: CDC2L5 (Homo sapiens (Human), UniProt Q14004); settings: 1 uM
# CDC2L5, sequence (Q14004 whole entry, looked up): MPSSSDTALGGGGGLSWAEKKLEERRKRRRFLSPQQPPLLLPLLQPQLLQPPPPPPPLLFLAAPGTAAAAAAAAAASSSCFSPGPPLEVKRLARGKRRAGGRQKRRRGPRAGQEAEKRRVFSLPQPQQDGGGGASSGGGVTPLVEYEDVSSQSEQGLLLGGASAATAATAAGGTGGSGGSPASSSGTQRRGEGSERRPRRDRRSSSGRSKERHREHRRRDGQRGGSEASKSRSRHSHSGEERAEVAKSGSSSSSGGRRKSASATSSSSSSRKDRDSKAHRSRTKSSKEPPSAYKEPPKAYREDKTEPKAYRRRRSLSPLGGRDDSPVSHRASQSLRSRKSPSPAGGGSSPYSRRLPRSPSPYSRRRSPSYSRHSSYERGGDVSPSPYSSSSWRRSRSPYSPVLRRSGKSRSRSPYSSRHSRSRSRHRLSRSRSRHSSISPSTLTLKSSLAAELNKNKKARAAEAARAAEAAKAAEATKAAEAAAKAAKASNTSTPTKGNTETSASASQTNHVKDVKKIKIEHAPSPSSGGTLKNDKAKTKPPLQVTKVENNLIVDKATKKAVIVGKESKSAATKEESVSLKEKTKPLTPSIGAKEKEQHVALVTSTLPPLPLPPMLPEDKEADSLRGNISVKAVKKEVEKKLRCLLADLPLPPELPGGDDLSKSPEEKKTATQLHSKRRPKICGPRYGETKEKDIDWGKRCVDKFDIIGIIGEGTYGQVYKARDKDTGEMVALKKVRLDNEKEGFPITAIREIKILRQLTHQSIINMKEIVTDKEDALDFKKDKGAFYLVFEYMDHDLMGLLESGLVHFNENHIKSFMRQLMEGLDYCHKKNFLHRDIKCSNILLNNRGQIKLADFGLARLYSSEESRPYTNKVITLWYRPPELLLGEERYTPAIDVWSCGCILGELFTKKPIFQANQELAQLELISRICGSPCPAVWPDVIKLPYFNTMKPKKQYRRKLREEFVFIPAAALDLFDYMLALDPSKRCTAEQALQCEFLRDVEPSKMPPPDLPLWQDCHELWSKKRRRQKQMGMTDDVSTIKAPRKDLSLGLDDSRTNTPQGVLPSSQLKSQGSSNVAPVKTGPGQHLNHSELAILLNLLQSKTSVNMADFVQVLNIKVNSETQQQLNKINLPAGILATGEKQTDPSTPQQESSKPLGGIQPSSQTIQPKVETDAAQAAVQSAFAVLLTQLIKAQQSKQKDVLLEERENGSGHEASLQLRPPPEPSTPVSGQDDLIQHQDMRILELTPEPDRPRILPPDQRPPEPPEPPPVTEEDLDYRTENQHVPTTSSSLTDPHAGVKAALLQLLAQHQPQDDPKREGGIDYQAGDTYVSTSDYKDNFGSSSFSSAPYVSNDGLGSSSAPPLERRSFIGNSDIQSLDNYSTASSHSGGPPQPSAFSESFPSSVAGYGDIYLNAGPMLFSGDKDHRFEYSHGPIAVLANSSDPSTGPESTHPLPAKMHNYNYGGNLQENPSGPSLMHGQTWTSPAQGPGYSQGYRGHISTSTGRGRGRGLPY
# SIK3, sequence (Q9Y2K2 whole entry): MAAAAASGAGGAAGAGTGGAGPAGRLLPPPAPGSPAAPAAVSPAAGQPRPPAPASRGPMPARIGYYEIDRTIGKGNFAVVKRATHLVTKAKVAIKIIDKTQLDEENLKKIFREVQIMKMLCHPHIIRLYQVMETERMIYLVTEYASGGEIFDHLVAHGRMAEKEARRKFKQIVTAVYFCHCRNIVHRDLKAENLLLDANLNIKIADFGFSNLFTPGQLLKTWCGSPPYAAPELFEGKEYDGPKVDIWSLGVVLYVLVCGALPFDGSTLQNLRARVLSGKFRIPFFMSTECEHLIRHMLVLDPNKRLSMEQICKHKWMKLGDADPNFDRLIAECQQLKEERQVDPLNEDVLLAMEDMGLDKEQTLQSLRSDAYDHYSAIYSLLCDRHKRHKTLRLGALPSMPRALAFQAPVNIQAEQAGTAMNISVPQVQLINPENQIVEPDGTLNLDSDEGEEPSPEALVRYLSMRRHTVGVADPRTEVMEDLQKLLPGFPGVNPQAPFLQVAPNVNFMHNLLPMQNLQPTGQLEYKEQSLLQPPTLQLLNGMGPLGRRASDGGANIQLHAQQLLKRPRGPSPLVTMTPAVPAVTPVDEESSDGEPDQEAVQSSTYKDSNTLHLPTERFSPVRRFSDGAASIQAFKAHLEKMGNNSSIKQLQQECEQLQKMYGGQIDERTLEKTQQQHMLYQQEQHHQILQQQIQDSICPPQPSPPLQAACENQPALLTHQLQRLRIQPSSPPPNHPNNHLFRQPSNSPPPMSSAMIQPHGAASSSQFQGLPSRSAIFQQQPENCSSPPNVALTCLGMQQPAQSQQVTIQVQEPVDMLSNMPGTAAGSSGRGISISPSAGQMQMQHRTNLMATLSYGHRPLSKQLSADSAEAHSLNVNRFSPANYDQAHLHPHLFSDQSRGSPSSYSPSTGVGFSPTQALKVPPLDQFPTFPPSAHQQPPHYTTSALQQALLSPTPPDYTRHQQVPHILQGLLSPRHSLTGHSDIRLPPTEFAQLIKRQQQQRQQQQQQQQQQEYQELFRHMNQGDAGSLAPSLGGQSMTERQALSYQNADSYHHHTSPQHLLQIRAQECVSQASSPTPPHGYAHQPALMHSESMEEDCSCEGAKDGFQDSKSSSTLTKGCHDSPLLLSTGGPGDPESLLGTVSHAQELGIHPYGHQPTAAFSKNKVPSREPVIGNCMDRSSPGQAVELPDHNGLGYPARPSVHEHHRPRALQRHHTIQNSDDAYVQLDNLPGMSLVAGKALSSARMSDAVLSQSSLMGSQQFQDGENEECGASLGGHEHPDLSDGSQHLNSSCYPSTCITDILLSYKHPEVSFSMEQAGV
structure (smiles),measurement,setting,value
COc1ccc(N2C(=O)N(c3c(C)cccc3C)Cc3cnc(Nc4ccc(N5CCN(C)CC5)cc4)nc32)c(OC)c1 [HG-11-136-01],Enzyme activity at 1 μM (%) SIK3,[1]; 1 μM,9%
same,SIK3 % ACTIVITY,"[1]; compound at 1 μM, approximate Km for ATP",9%
same,KINOMEscan AAK1,[2],13
same,KINOMEscan ABL1 (T315I)-nonphosphorylated,[3],0
same,KINOMEscan ACVR2B,[4],3.2
same,KINOMEscan CAMK2A,[5],93
same,KINOMEscan CAMKK2,[6],100
same,KINOMEscan CSNK1E,[7],59
same,KINOMEscan DRAK1,[8],96
same,KINOMEscan DYRK2,[9],5
same,KINOMEscan EPHB3,[10],0
same,KINOMEscan ERBB2,[11],0
same,KINOMEscan ERK2,[12],96
same,KINOMEscan FGFR3,[13],0.95
same,KINOMEscan FLT3 (R834Q),[14],48
same,KINOMEscan FLT4,[15],6.6
same,KINOMEscan GAK,[16],6.8
same,KINOMEscan MAP4K4,[17],17
same,KINOMEscan MAPKAPK2,[18],100
same,KINOMEscan MAPKAPK5,[19],96
same,KINOMEscan MEK2,[20],0.2
same,KINOMEscan MEK3,[21],6.4
same,KINOMEscan MEK5,[22],0.1
same,KINOMEscan MKNK1,[23],85
same,KINOMEscan MLCK,[24],100
same,KINOMEscan MST1R,[25],100
same,KINOMEscan NEK10,[26],9.6
same,KINOMEscan NEK3,[27],39
same,KINOMEscan NEK5,[28],98
same,KINOMEscan p38-gamma,[29],91
same,KINOMEscan PIK3C2B,[30],0.55
same,KINOMEscan PKAC-beta,[31],66
same,KINOMEscan RAF1,[32],93
same,KINOMEscan RSK4 (Kin.Dom.1-N-terminal),[33],39
same,KINOMEscan SIK2,[34],6.1
same,KINOMEscan STK36,[35],0
same,KINOMEscan TBK1,[36],37
same,KINOMEscan TIE1,[37],30
same,KINOMEscan TNIK,[38],2.8
same,KINOMEscan TNK2,[39],0.15
same,KINOMEscan YSK1,[40],19
same,KINOMEscan CDC2L5,[41],65

# Reference: patent US11725011B2, “Bicyclic urea kinase inhibitors and uses thereof” (The Broad Institute, Inc., priority 2016, dated 2023)
